ChEMBL document CHEMBL1201862, “PubChem BioAssay data set” (2004)
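Five compound concentrations were applied to cells in 96-well plates for 48 hours; endpoints were derived by simple linear interpolation of the resulting dose-response curve. GI50 marks 50% less growth.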 Active and inactive are the calls of the source. No stated cut-off is given here; in the data, active = GI50 up to about 1.1 µM and inactive = higher.

What was measured:
Test in all cases: inhibition of tumour cell growth, NCI panel, 48 h
[1] = test system: 786-0
[2] = test system: A549
[3] = test system: ACHN
[4] = test system: HCT-116
[5] = test system: HOP-92
[6] = test system: HT-29
[7] = test system: KM12
[8] = test system: OVCAR-4
[9] = test system: RPMI-8226
[10] = test system: SF-539
[11] = test system: SN12C
[12] = test system: SW-620
[13] = test system: COLO 205
[14] = test system: HOP-62
[15] = test system: NCI-H460
[16] = test system: A498

SMILES | GI50 [1] | GI50 [2] | GI50 [3] | GI50 [4] | GI50 [5] | GI50 [6] | GI50 [7] | GI50 [8] | GI50 [9] | GI50 [10] | GI50 [11] | GI50 [12] | GI50 [13] | GI50 [14] | GI50 [15] | GI50 [16]
NCCOCCOCC(=O)O | > 100 µM (inactive) | > 100 µM (inactive) | > 100 µM (inactive) | > 100 µM (inactive) | > 100 µM (inactive) | > 100 µM (inactive) | > 100 µM (inactive) | > 100 µM (inactive) | > 100 µM (inactive) | > 100 µM (inactive) | > 100 µM (inactive) | > 100 µM (inactive) | – | – | – | –
C=C1C2C[C@@H]3OC4CC5O[C@]6(CC5OC4C(C)C3OC(=O)CC3CC[C@@H]4OC5C7OC8C[C@](CCC9CC(=C)[C@H](CCC(C[C@H]1C)O2)O9)(OC7C4O3)O[C@@H]85)C[C@@H]1O[C@@]2(CC(C)[C@@H]3OC(CC(=O)CCO)C(O)C[C@@H]3O2)CC(C)[C@@H]1O6 (stereo partly drawn) | < 0.001 µM (active) | < 0.001 µM (active) | < 0.001 µM (active) | < 0.001 µM (active) | < 0.001 µM (active) | – | < 0.001 µM (active) | < 0.001 µM (active) | – | < 0.001 µM (active) | < 0.001 µM (active) | < 0.001 µM (active) | < 0.001 µM (active) | < 0.001 µM (active) | < 0.001 µM (active) | –
O=C(CO)CC(=O)C(=O)Nc1ccccc1 | > 100 µM (inactive) | > 100 µM (inactive) | > 100 µM (inactive) | > 100 µM (inactive) | > 100 µM (inactive) | > 100 µM (inactive) | > 100 µM (inactive) | > 100 µM (inactive) | – | > 100 µM (inactive) | > 100 µM (inactive) | > 100 µM (inactive) | > 100 µM (inactive) | > 100 µM (inactive) | > 100 µM (inactive) | –
O=C(CCC(=O)Nc1ccc(Cl)c(Cl)c1)CC(=O)c1ccc(F)cc1 | > 100 µM (inactive) | > 100 µM (inactive) | > 100 µM (inactive) | > 100 µM (inactive) | > 100 µM (inactive) | > 100 µM (inactive) | > 100 µM (inactive) | > 100 µM (inactive) | – | > 100 µM (inactive) | > 100 µM (inactive) | > 100 µM (inactive) | > 100 µM (inactive) | > 100 µM (inactive) | > 100 µM (inactive) | –
O=C1CCC(=O)N1Cc1ccccc1/N=[N+](\[O-])c1ccccc1CN1C(=O)CCC1=O | > 100 µM (inactive) | > 100 µM (inactive) | > 100 µM (inactive) | > 100 µM (inactive) | – | > 100 µM (inactive) | > 100 µM (inactive) | > 100 µM (inactive) | > 100 µM (inactive) | > 100 µM (inactive) | > 100 µM (inactive) | > 100 µM (inactive) | > 100 µM (inactive) | > 100 µM (inactive) | > 100 µM (inactive) | –
O=C1C2Cc3ccccc3CN2C(=O)N1CCN1CCCC1 (stereo not drawn) | > 100 µM (inactive) | > 100 µM (inactive) | > 100 µM (inactive) | – | – | – | > 100 µM (inactive) | > 100 µM (inactive) | > 100 µM (inactive) | > 100 µM (inactive) | > 100 µM (inactive) | > 100 µM (inactive) | > 100 µM (inactive) | > 100 µM (inactive) | > 100 µM (inactive) | > 100 µM (inactive)
O=[N+]([O-])c1cc(Cl)ccc1S(=O)(=O)c1ccc(Cl)cc1[N+](=O)[O-] | 15.5 µM (inactive) | 25.4 µM (inactive) | 16.1 µM (inactive) | 15.7 µM (inactive) | 18.5 µM (inactive) | 16.8 µM (inactive) | 14.2 µM (inactive) | 17.9 µM (inactive) | 29.6 µM (inactive) | 18 µM (inactive) | 15.7 µM (inactive) | 18.5 µM (inactive) | 17 µM (inactive) | 21.3 µM (inactive) | 16.1 µM (inactive) | –
O=c1/c(=C/c2ccc3c(c2)OCO3)sc2nnc(-c3ccco3)n12 | > 100 µM (inactive) | > 100 µM (inactive) | > 100 µM (inactive) | > 100 µM (inactive) | – | – | > 100 µM (inactive) | > 100 µM (inactive) | > 100 µM (inactive) | > 100 µM (inactive) | > 100 µM (inactive) | > 100 µM (inactive) | > 100 µM (inactive) | > 100 µM (inactive) | > 100 µM (inactive) | > 100 µM (inactive)
CSc1nc(C)cc(=O)n1C1OC(COC(C)=O)C(OC(C)=O)C(OC(C)=O)C1OC(C)=O (stereo not drawn) | > 100 µM (inactive) | > 100 µM (inactive) | > 100 µM (inactive) | > 100 µM (inactive) | – | > 100 µM (inactive) | > 100 µM (inactive) | > 100 µM (inactive) | > 100 µM (inactive) | – | > 100 µM (inactive) | > 100 µM (inactive) | > 100 µM (inactive) | > 10 µM (inactive) | > 100 µM (inactive) | > 100 µM (inactive)
COc1cc(/C=C/C(=N\NC(=O)c2ccccc2)c2sc(Nc3ccc(Cl)c(Cl)c3)nc2C)ccc1O | 41.2 µM (inactive) | 31.7 µM (inactive) | 26.8 µM (inactive) | 28.2 µM (inactive) | < 0.01 µM (active) | 28.9 µM (inactive) | 30.5 µM (inactive) | 33.4 µM (inactive) | – | 40.8 µM (inactive) | 33 µM (inactive) | 40.4 µM (inactive) | 34 µM (inactive) | 38.4 µM (inactive) | 31.3 µM (inactive) | –
Cc1nnc(N/N=C(/C(=O)C(C#N)c2ccc(Cl)cc2)C(C#N)c2ccc(Cl)cc2)n1N (stereo not drawn) | 17.4 µM (inactive) | 20.1 µM (inactive) | 15.9 µM (inactive) | – | > 100 µM (inactive) | 20.4 µM (inactive) | 18.7 µM (inactive) | 18.1 µM (inactive) | 16.5 µM (inactive) | – | 19.3 µM (inactive) | 18.8 µM (inactive) | 17.7 µM (inactive) | 16.6 µM (inactive) | 18.6 µM (inactive) | –
COc1ccc(C[P+]2(c3ccccc3)CCCCC2)cc1.O=[N+]([O-])c1ccc(C[P+]2(c3ccccc3)CCCCC2)cc1.[O-][Cl+3]([O-])([O-])[O-].[O-][Cl+3]([O-])([O-])[O-] | > 100 µM (inactive) | > 100 µM (inactive) | > 100 µM (inactive) | – | – | 10 µM (inactive) | 75.5 µM (inactive) | > 100 µM (inactive) | 24.9 µM (inactive) | > 100 µM (inactive) | 70 µM (inactive) | 94.6 µM (inactive) | 52.5 µM (inactive) | 77.1 µM (inactive) | 71.6 µM (inactive) | > 100 µM (inactive)
Brc1ccc(-c2nnc(-c3nn(-c4ccccc4)c4nc5ccccc5nc34)o2)cc1 | > 100 µM (inactive) | 96.4 µM (inactive) | > 100 µM (inactive) | 27.8 µM (inactive) | > 100 µM (inactive) | > 100 µM (inactive) | > 100 µM (inactive) | 79.3 µM (inactive) | 30.5 µM (inactive) | > 100 µM (inactive) | > 100 µM (inactive) | > 100 µM (inactive) | > 100 µM (inactive) | > 100 µM (inactive) | > 100 µM (inactive) | –
CCCCCCCCCCCCCCCC(=O)OCC1OC(n2cc(F)c(=O)[nH]c2=O)C(NC(=O)OCc2ccccc2)C(O)C1O (stereo not drawn) | 18.7 µM (inactive) | 18.9 µM (inactive) | 34.1 µM (inactive) | 16.6 µM (inactive) | 15.9 µM (inactive) | 17.8 µM (inactive) | 20.8 µM (inactive) | 20 µM (inactive) | 15.7 µM (inactive) | 16.4 µM (inactive) | 19.9 µM (inactive) | 26.9 µM (inactive) | 17.4 µM (inactive) | – | 19.2 µM (inactive) | 18.8 µM (inactive)
C[C@]12CC=CC(=O)[C@@]1(C)CCC(=O)C2 | > 100 µM (inactive) | > 100 µM (inactive) | > 100 µM (inactive) | > 100 µM (inactive) | > 100 µM (inactive) | > 100 µM (inactive) | > 100 µM (inactive) | > 100 µM (inactive) | – | > 100 µM (inactive) | > 100 µM (inactive) | > 100 µM (inactive) | – | > 100 µM (inactive) | > 100 µM (inactive) | > 100 µM (inactive)
CC1(C)NC(=O)N(CCCCCCN2C(=O)NC(C)(C)C2=O)C1=O | > 100 µM (inactive) | > 100 µM (inactive) | > 100 µM (inactive) | > 100 µM (inactive) | > 100 µM (inactive) | > 100 µM (inactive) | > 100 µM (inactive) | > 100 µM (inactive) | > 100 µM (inactive) | – | > 100 µM (inactive) | > 100 µM (inactive) | > 100 µM (inactive) | – | > 100 µM (inactive) | > 100 µM (inactive)
C=CCCC(O)c1cc(C)c(O)c(C)c1 (stereo not drawn) | > 100 µM (inactive) | > 100 µM (inactive) | > 100 µM (inactive) | – | – | – | > 100 µM (inactive) | – | > 100 µM (inactive) | > 100 µM (inactive) | > 100 µM (inactive) | > 100 µM (inactive) | > 100 µM (inactive) | > 100 µM (inactive) | > 100 µM (inactive) | > 100 µM (inactive)
COc1ccc(/C=C/CO)cc1OC | > 100 µM (inactive) | > 100 µM (inactive) | > 100 µM (inactive) | – | 56.8 µM (inactive) | > 100 µM (inactive) | > 100 µM (inactive) | – | > 100 µM (inactive) | > 100 µM (inactive) | > 100 µM (inactive) | > 100 µM (inactive) | > 100 µM (inactive) | – | – | –
Clc1ccc2c(c1)C1C(CO2)C(c2ccccc2)=NN1c1ccccc1 (stereo not drawn) | 24.9 µM (inactive) | 32.7 µM (inactive) | 35.2 µM (inactive) | 16.1 µM (inactive) | 18.6 µM (inactive) | 76.9 µM (inactive) | 31.6 µM (inactive) | – | 12.4 µM (inactive) | – | – | 39.7 µM (inactive) | 71.3 µM (inactive) | 37 µM (inactive) | 36.2 µM (inactive) | > 100 µM (inactive)
